The text below walks through data of patent publication US20110046170A1, “NOVEL PYRIMIDINE-PYRIDINE DERIVATIVES” (priority 2008, published 2011).

Usually pEC50 stands for the negative decadic logarithm of the EC50, by convention in mol/L.

The test deals with human S1P1 receptor (Homo sapiens, UniProt P21453). Nature of the test: GTPγS assay to determine EC50 values. The test is classed as biochemical. The following applies: 35S-GTPγS binding, membrane preparations of CHO cells expressing recombinant human S1P1 receptor. As for the experimental part: GTPγS Assay to Determine EC50 Values
Chain of human S1P1 receptor (P21453 whole entry): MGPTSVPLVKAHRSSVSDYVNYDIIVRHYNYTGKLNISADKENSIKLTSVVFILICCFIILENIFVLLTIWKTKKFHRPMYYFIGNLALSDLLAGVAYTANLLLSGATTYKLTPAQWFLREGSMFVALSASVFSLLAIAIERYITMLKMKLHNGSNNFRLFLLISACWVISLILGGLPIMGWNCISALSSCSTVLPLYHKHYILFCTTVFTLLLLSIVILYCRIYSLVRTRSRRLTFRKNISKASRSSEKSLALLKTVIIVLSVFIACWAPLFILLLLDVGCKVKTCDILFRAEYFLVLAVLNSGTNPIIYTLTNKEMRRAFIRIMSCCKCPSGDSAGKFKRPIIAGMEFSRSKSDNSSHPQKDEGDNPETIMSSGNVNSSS
GTPγS binding assays are performed in 96 well microtiter plates (Nunc, 442587) in a final volume of 200 μl, using membrane preparations of CHO cells expressing recombinant human S1P1 receptor. Assay conditions are 20 mM Hepes (Fluka, 54461), 100 mM NaCl (Fluka, 71378), 5 mM MgCl2 (Fluka, 63064), 0.1% BSA (Calbiochem, 126609), 1 μM GDP (Sigma, G-7127), 2.5% DMSO (Fluka, 41644), 50 pM ^35S-GTPγS (Amersham Biosciences, SJ1320). The pH is 7.4. Test compounds are dissolved and diluted in 100% DMSO and pre-incubated at rt for 30 min in 150 μl of the above assay buffer, in the absence of ^35S-GTPγS. After addition of 50 μl of ^35S-GTPγS, the assay is incubated for 1 h at rt. The assay is terminated by transfer of the reaction mixture to a Multiscreen plate (Millipore, MAHFC1H60) using a cell harvester from Packard Biosciences, and the plates are washed with ice-cold 10 mM Na2HPO4/NaH2PO4 (70%/30%), dried, sealed at the bottom and, after addition of 25 μl MicroScint20 (Packard Biosciences, order# 6013621), sealed on the top. Membrane-bound ^35S-GTPγS is measured with a TopCount from Packard Biosciences.
EC50 is the concentration of agonist inducing 50% of the maximal specific ^35S-GTPγS binding. Specific binding is determined by subtracting non-specific binding from maximal binding. Maximal binding is the amount of cpm bound to the Multiscreen plate in the presence of 10 μM of S1P. Non-specific binding is the amount of binding in the absence of an agonist in the assay.
(In general: GTPγS resists hydrolysis and so accumulates on activated G proteins.)

pEC50: −log10 of the molar value.

In the case of `CCc1cc(-c2nc(-c3cc(C)nc(NC)n3)no2)cnc1N(C)C(C)C` [Example 220], the negative-log EC50 (pEC50) (agonistic activity) was 6.64.

Turning to `Cc1cc(CC(C)C)nc(-c2nc(-c3cc(C)nc(N(C)C(C)C)n3)no2)c1` [Example 246], the pEC50 was < 5.00.

On to `CNc1nc(C)cc(-c2noc(-c3cc(C)cc(CC(C)C)n3)n2)n1` [Example 238], for which, where the note is “agonistic activity”, the pEC50 was 6.40.

On to `CCc1cc(-c2noc(-c3cc(C)nc(N4CCCC4)n3)n2)cc(C)n1` [Example 118], for which the negative logarithm of the EC50 (pEC50) (agonistic activity) was 6.73. In the case of `COc1nc(C)cc(-c2noc(-c3cc(C)nc(C)c3)n2)n1` [Example 180], the negative logarithm of the EC50 (pEC50) was < 5.00. For the compound `CNc1nc(C)cc(-c2noc(-c3cc(C)nc(N(C)C)c3)n2)n1` [Example 188], the pEC50 (agonistic activity) was 6.25.

In the case of `CCCNc1nc(C)cc(-c2noc(-c3cc(C)nc(Cl)c3)n2)n1` [Example 185], the negative-log EC50 (pEC50) (agonistic activity) was 7.66. Same read-out and setting: as for `CCc1cc(-c2noc(-c3cc(C)nc(OCC(C)C)n3)n2)cc(C)n1` [Example 135], the figure is 6.85. As for `CCc1cc(-c2nc(-c3cc(C)nc(NCC(C)C)n3)no2)cnc1N(C)C(C)C` [Example 224], the negative-log EC50 (pEC50) is < 5.00. Take `CCc1cc(-c2noc(-c3cc(C)nc(NC4CC4)n3)n2)cc(C)n1` [Example 116]: the negative logarithm of the EC50 (pEC50) (agonistic activity) was 8.68. Consider `Cc1cc(CC(C)C)nc(-c2nc(-c3cc(C)nc(OC(C)C)n3)no2)c1` [Example 254], for which the negative-log EC50 (pEC50) was < 5.00. In the case of `CCCN(CC)c1nc(C)cc(-c2noc(-c3cc(C)nc(C)c3)n2)n1` [Example 178], the negative logarithm of the EC50 (pEC50) (agonistic activity) was 7.96. Still for that read-out and setting: as for `Cc1cc(-c2nnc(-c3cc(C)nc(NC(C)C)n3)o2)cc(C)n1` [Example 100], the figure is 6.89. Take `CCN(c1nc(C)cc(-c2noc(-c3cc(C)cc(CC(C)C)n3)n2)n1)C(C)C` [Example 250]: the pEC50 is < 5.00. `CCc1cnc(-c2noc(-c3cc(C)nc(NC(C)C)n3)n2)cc1C` [Example 159]: the pEC50 (agonistic activity) is 7.28. Regarding `CCCOc1nc(C)cc(-c2nc(-c3cc(C)nc(N(C)CC)c3)no2)n1` [Example 78], the pEC50 was < 5.00. `Cc1cc(CC(C)C)nc(-c2nc(-c3cc(C)nc(N(C)C)n3)no2)c1` [Example 243]: where the note is “agonistic activity”, the pEC50 is 6.50.

Take `Cc1cc(-c2nc(-c3cc(C)nc(N(C)C(C)C)n3)no2)cc(N(C)C)n1` [Example 196]: the pEC50 (agonistic activity) is 6.62. Same read-out and setting: to `CCc1cc(-c2nc(-c3cc(C)nc(C)c3)no2)nc(NC(C)C)n1` [Example 147] belongs 9.15.

Regarding `CCN(c1nc(C)cc(-c2noc(-c3ccnc(C)c3)n2)n1)C(C)C` [Example 166], the pEC50 (agonistic activity) was 5.67.

Consider `CCCN(C)c1nc(C)cc(-c2noc(-c3cnc(N(C)C(C)C)c(CC)c3)n2)n1` [Example 227], for which the pEC50 was < 5.00.

As for `Cc1cc(-c2nc(-c3cc(C)nc(OCC(C)C)n3)no2)cc(N(C)C)n1` [Example 205], the negative logarithm of the EC50 (pEC50) (agonistic activity) was 5.52. `CCc1cc(-c2nc(-c3cc(C)nc(OCC(C)C)n3)no2)cnc1N(C)C(C)C` [Example 237]: the negative logarithm of the EC50 (pEC50) was < 5.00. In the case of `CCN(CC)c1nc(C)cc(-c2noc(-c3cc(C)nc(C)c3)n2)n1` [Example 177], under “agonistic activity”, the pEC50 was 7.96. Consider `CCN(CC)c1nc(C)cc(-c2noc(-c3cc(C)cc(CC(C)C)n3)n2)n1` [Example 248], for which the pEC50 was < 5.00. Same read-out and setting: as for `COc1nc(C)cc(-c2nc(-c3cc(C)nc(C)c3)no2)n1` [Example 58], the figure is < 5.00; as for `CCCN(CC)c1nc(C)cc(-c2noc(-c3cc(C)cc(CC(C)C)n3)n2)n1` [Example 249], < 5.00. As to `CCNc1nc(C)cc(-c2nc(-c3cc(C)nc(Cl)c3)no2)n1` [Example 12], the pEC50 (agonistic activity) was 7.57. Still for that read-out and setting: as for `CCc1cc(-c2nc(-c3cc(C)nc(N(C)C(C)C)n3)no2)cnc1N(C)C(C)C` [Example 228], the figure is 5.49.

Take `Cc1cc(CC(C)C)nc(-c2nc(-c3cc(C)nc(NC(C)C)n3)no2)c1` [Example 241]: the pEC50 was < 5.00.

`Cc1cc(-c2noc(-c3cc(CC(C)C)nc(NC(C)C)n3)n2)cc(C)n1` [Example 142]: the pEC50 (agonistic activity) is 7.59. The same measure, in the same setting: to `Cc1cc(-c2noc(-c3cnc(OC(C)C)c(C)c3)n2)nc(NC(C)C)n1` [Example 214] belongs 6.14; to `COc1nc(C)cc(-c2noc(-c3cc(C)nc(N(C)C)c3)n2)n1` [Example 201], 5.94; to `Cc1cc(-c2noc(-c3cc(C)nc(OC(C)C)n3)n2)cc(C)n1` [Example 132], 7.36.

As for `CNc1nc(C)cc(-c2noc(-c3cc(C)nc(CC(C)C)c3)n2)n1` [Example 81], the pEC50 (agonistic activity) was 7.52. Consider `CCCNc1nc(C)cc(-c2noc(-c3cnc(CC(C)C)c(C)c3)n2)n1` [Example 206], for which the negative-log EC50 (pEC50) (agonistic activity) was 5.24. Same read-out and setting: to `COc1nc(C)cc(-c2noc(-c3cc(C)nc(CC(C)C)c3)n2)n1` [Example 94] belongs 7.57. For `Cc1cc(CC(C)C)nc(-c2nc(-c3cc(C)nc(N(C)CC(C)C)n3)no2)c1` [Example 247], the pEC50 was < 5.00. `CCc1cc(-c2nc(-c3cc(C)nc(N(C)CC(C)C)n3)no2)cnc1N(C)C(C)C` [Example 229]: the pEC50 is < 5.00. Turning to `CCCNc1nc(C)cc(-c2nnc(-c3cc(C)nc(C)c3)s2)n1` [Example 261], where the note is “agonistic activity”, the negative logarithm of the EC50 (pEC50) was 6.48. For `CCCNc1nc(C)cc(-c2noc(-c3cc(C)cc(CC(C)C)n3)n2)n1` [Example 240], the pEC50 was < 5.00. `CCCNc1nc(C)cc(-c2nc(-c3ccnc(C)c3)no2)n1` [Example 101]: under “agonistic activity”, the negative logarithm of the EC50 (pEC50) was 7.96. The same measure, in the same setting: as for `CCCN(CC)c1nc(C)cc(-c2noc(-c3cnc(CC(C)C)c(C)c3)n2)n1` [Example 211], the figure is 6.10.

Regarding `Cc1cc(-c2nc(-c3cc(C)nc(NCC(C)C)n3)no2)cc(Cl)n1` [Example 187], the negative-log EC50 (pEC50) (agonistic activity) is 7.51. The same measure, in the same setting: as for `Cc1cc(-c2noc(-c3cc(C)nc(NC(C)C)n3)n2)cc(N(C)C)n1` [Example 25], the figure is 7.34; as for `COc1nc(C)cc(-c2noc(-c3cc(C)cc(CC(C)C)n3)n2)n1` [Example 251], 6.70; as for `COc1nc(C)cc(-c2nc(-c3cc(C)nc(C(C)C)c3)no2)n1` [Example 60], 6.90. On the same count and under the same terms, to `CCCNc1nc(C)cc(-c2nc(-c3cc(C)nc(OC)c3)no2)n1` [Example 119] belongs 7.52. `Cc1cc(CC(C)C)nc(-c2nc(-c3cc(C)nc(NCC(C)C)n3)no2)c1` [Example 242]: the pEC50 is < 5.00. As for `CCc1cc(-c2nc(-c3cc(C)nc(C)c3)no2)nc(N(C)C)n1` [Example 149], where the note is “agonistic activity”, the pEC50 was 7.20. For `Cc1cc(CC(C)C)nc(-c2nc(-c3cc(C)nc(OCC(C)C)n3)no2)c1` [Example 255], the negative logarithm of the EC50 (pEC50) was < 5.00. Consider `CCN(c1nc(C)cc(-c2nc(-c3cc(C)nc(OC)c3)no2)n1)C(C)C` [Example 126], for which the pEC50 (agonistic activity) was 7.41.

As to `Cc1cc(-c2noc(-c3cc(C)nc(N(C)C(C)C)n3)n2)cc(C)n1` [Example 109], for the setting “agonistic activity”, the pEC50 is 8.89. As for `CCOc1nc(C)cc(-c2nc(-c3cc(C)nc(N(C)C)c3)no2)n1` [Example 70], the pEC50 is < 5.00. Consider `CCc1cc(-c2nc(-c3cc(C)nc(NC(C)C)n3)no2)cnc1N(C)C(C)C` [Example 223], for which the negative logarithm of the EC50 (pEC50) (agonistic activity) is 5.38. On the same count and under the same terms, as for `CCCN(C)c1nc(C)cc(-c2noc(-c3cc(C)nc(C)c3)n2)n1` [Example 174], the figure is 7.47. On to `CCc1cc(-c2nc(-c3cc(C)nc(N(CC)C(C)C)n3)no2)cnc1N(C)C(C)C` [Example 232], for which the pEC50 was < 5.00.

With `CCCOc1nc(C)cc(-c2noc(-c3cc(C)nc(C)c3)n2)n1` [Example 182], the pEC50 (agonistic activity) was 6.40. Still for that read-out and setting: to `CCNc1nc(C)cc(-c2nc(-c3cc(C)nc(CC)c3)no2)n1` [Example 9] belongs 7.68.

Turning to `CCCN(CC)c1nc(C)cc(-c2noc(-c3cnc(N(C)C(C)C)c(CC)c3)n2)n1` [Example 231], the pEC50 was < 5.00. For `CCc1cc(-c2nc(-c3cc(C)nc(OC)n3)no2)cnc1N(C)C(C)C` [Example 233], under “agonistic activity”, the pEC50 is 6.72.

Take `CCN(c1nc(C)cc(-c2noc(-c3cc(C)nc(N(C)C)c3)n2)n1)C(C)C` [Example 200]: under “agonistic activity”, the negative-log EC50 (pEC50) is 7.03. Turning to `Cc1cc(-c2nc(-c3ccc(C)c(C)n3)no2)nc(NC(C)C)n1` [Example 155], the pEC50 (agonistic activity) was 7.70. For the compound `Cc1cc(-c2noc(-c3cc(C)nc(NCC(C)C)n3)n2)cc(C)n1` [Example 27], under “agonistic activity”, the pEC50 was 8.10.
